Results reported in US12122763B2, “Substituted piperidines for androgen receptor degradation” (UBIX THERAPEUTICS, INC., priority 2020, dated 2024).

Target: T1, Androgen Receptor (AR) protein (Homo sapiens, UniProt P10275, T878A)
T1 construct: endogenous in cells; host or cells: LNCaP
Test: Androgen Receptor (AR) protein degradation assay in LNCaP cells, western blotting
Format: cell-based
Details: 20 h; for inhibition at 0.01 µM: 0.01 μM compound; for inhibition at 0.1 µM: 0.1 μM compound; for inhibition at 1 µM: 1 μM compound; for inhibition at 10 µM: 10 μM compound
Outline: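 LNCaP prostate cancer cells were cultured 3 days, then treated with compound for 20 h. Lysates in 1% SDS buffer were normalised by BCA, and 8 μg protein was run on 4–12% Bis-Tris gels. AR was immunoblotted with chemiluminescence, using GAPDH/β-actin as loading controls.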

T1 sequence (P10275 whole entry T878A): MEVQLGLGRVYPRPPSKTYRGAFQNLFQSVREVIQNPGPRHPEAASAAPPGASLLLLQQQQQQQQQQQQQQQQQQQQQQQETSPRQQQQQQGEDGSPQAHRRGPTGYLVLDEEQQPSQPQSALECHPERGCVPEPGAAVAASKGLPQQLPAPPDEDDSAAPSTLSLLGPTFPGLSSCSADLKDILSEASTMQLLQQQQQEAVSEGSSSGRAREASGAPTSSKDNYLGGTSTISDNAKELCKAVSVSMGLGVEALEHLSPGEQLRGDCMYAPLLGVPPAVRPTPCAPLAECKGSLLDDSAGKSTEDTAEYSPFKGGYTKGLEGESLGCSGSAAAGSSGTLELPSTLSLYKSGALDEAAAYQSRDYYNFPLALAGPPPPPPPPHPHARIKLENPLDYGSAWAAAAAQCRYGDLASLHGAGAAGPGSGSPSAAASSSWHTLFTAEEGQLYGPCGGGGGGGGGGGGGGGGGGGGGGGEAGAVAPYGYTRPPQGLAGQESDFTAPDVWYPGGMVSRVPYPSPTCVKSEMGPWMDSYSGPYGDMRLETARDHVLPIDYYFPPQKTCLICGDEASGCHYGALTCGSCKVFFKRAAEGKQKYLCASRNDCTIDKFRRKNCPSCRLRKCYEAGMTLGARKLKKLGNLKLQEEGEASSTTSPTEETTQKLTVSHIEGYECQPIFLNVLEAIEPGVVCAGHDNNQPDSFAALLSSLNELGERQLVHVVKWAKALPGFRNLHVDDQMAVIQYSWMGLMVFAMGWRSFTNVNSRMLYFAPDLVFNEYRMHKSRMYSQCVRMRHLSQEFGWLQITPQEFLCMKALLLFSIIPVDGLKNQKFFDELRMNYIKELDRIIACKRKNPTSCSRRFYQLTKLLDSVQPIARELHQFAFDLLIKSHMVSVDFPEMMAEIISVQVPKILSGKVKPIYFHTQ
T1 sequence (Q96SW2 whole entry partner): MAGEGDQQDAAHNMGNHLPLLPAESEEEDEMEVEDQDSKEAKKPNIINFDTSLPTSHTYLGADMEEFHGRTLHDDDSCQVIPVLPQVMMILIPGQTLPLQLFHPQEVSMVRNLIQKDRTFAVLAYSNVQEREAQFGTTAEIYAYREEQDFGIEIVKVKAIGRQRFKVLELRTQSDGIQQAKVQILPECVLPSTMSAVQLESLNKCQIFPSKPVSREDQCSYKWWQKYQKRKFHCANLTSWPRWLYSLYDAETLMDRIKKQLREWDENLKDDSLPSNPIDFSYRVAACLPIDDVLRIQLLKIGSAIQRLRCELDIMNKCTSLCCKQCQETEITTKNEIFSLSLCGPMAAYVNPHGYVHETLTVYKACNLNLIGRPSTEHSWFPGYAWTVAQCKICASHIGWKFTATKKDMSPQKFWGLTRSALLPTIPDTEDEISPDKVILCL

N#Cc1ccc(N2CCC(C(=O)Nc3ccc(N4CC5(CCN(CC6CN(c7ccc8c(c7)C(=O)N(C7CCC(=O)NC7=O)C8=O)C6)CC5)C4)cn3)CC2)cc1C(F)(F)F (stereo not shown) [Example 123, 1-(4-cyano-3-(trifluoromethyl)phenyl)-N-(5-(7-((1-(2-(2,6-dioxopiperidin-3-yl)-1,3-dioxoisoindolin-5-yl)azetidin-3-yl)methyl)-2,7-diazaspiro[3.5]nonan-2-yl)pyridin-2-yl)piperidine-4-carboxamide]
inhibition at 0.01 µM: 55%
inhibition at 0.1 µM: 91%
inhibition at 1 µM: 97%

N#Cc1ccc(N2CCC(C(=O)Nc3ccc(N4CC5(CCN(CC6CN(c7ccc8c(c7)C(=O)N(C7CCC(=O)NC7=O)C8=O)C6)CC5)C4)cn3)CC2)cc1Cl (stereo not shown) [Example 124, 1-(3-chloro-4-cyanophenyl)-N-(5-(7-((1-(2-(2,6-dioxopiperidin-3-yl)-1,3-dioxoisoindolin-5-yl)azetidin-3-yl)methyl)-2,7-diazaspiro[3.5]nonan-2-yl)pyridin-2-yl)piperidine-4-carboxamide]
inhibition at 0.01 µM: 52%
inhibition at 0.1 µM: 88%
inhibition at 1 µM: 96%

N#Cc1ccc(N2CCC(C(=O)Nc3ccc(N4CC5(CCN(C[C@H]6CCN(c7ccc8c(c7)C(=O)N(C7CCC(=O)NC7=O)C8=O)C6)CC5)C4)cn3)CC2)cc1C(F)(F)F (stereo partly drawn) [Example 125, 1-(4-cyano-3-(trifluoromethyl)phenyl)-N-(5-(7-(((3R)-1-(2-(2,6-dioxopiperidin-3-yl)-1,3-dioxoisoindolin-5-yl)pyrrolidin-3-yl)methyl)-2,7-diazaspiro[3.5]nonan-2-yl)pyridin-2-yl)piperidine-4-carboxamide]
inhibition at 0.01 µM: 25%
inhibition at 0.1 µM: 84%
inhibition at 1 µM: 92%

N#Cc1ccc(N2CCC(C(=O)Nc3ccc(N4CC5(CCN(C[C@@H]6CCN(c7ccc8c(c7)C(=O)N(C7CCC(=O)NC7=O)C8=O)C6)CC5)C4)cn3)CC2)cc1C(F)(F)F (stereo partly drawn) [Example 126, 1-(4-cyano-3-(trifluoromethyl)phenyl)-N-(5-(7-(((3S)-1-(2-(2,6-dioxopiperidin-3-yl)-1,3-dioxoisoindolin-5-yl)pyrrolidin-3-yl)methyl)-2,7-diazaspiro[3.5]nonan-2-yl)pyridin-2-yl)piperidine-4-carboxamide]
inhibition at 0.01 µM: 51%
inhibition at 0.1 µM: 89%
inhibition at 1 µM: 96%

N#Cc1ccc(N2CCC(C(=O)Nc3ccc(N4CCC5(CC4)CN(CC4CCN(c6ccc7c(c6)C(=O)N(C6CCC(=O)NC6=O)C7=O)CC4)C5)cn3)CC2)cc1C(F)(F)F (stereo not shown) [Example 127, 1-(4-cyano-3-(trifluoromethyl)phenyl)-N-(5-(2-((1-(2-(2,6-dioxopiperidin-3-yl)-1,3-dioxoisoindolin-5-yl)piperidin-4-yl)methyl)-2,7-diazaspiro[3.5]nonan-7-yl)pyridin-2-yl)piperidine-4-carboxamide]
inhibition at 0.01 µM: 34%
inhibition at 0.1 µM: 52%
inhibition at 1 µM: 66%

N#Cc1ccc(N2CCC(C(=O)Nc3ccc(N4CCC5(CC4)CN(CC4CN(c6ccc7c(c6)C(=O)N(C6CCC(=O)NC6=O)C7=O)C4)C5)cn3)CC2)cc1C(F)(F)F (stereo not shown) [Example 128, 1-(4-cyano-3-(trifluoromethyl)phenyl)-N-(5-(2-((1-(2-(2,6-dioxopiperidin-3-yl)-1,3-dioxoisoindolin-5-yl)azetidin-3-yl)methyl)-2,7-diazaspiro[3.5]nonan-7-yl)pyridin-2-yl)piperidine-4-carboxamide]
inhibition at 0.01 µM: 28%
inhibition at 0.1 µM: 43%
inhibition at 1 µM: 61%

N#Cc1ccc(N2CCC(C(=O)Nc3ccc(N4CCC5(CC4)CN(C(=O)C4CCN(c6ccc7c(c6)C(=O)N(C6CCC(=O)NC6=O)C7=O)CC4)C5)cn3)CC2)cc1C(F)(F)F (stereo not shown) [Example 129, 1-(4-cyano-3-(trifluoromethyl)phenyl)-N-(5-(2-(1-(2-(2,6-dioxopiperidin-3-yl)-1,3-dioxoisoindolin-5-yl)piperidine-4-carbonyl)-2,7-diazaspiro[3.5]nonan-7-yl)pyridin-2-yl)piperidine-4-carboxamide]
inhibition at 0.01 µM: 11%
inhibition at 0.1 µM: 42%
inhibition at 1 µM: 71%

N#Cc1ccc(N2CCC(C(=O)Nc3ccc(N4CCN(CC5CCN(C(=O)CNc6ccc7c(c6)C(=O)N(C6CCC(=O)NC6=O)C7=O)CC5)CC4)cn3)CC2)cc1C(F)(F)F (stereo not shown) [Example 130, 1-(4-cyano-3-(trifluoromethyl)phenyl)-N-(5-(4-((1-((2-(2,6-dioxopiperidin-3-yl)-1,3-dioxoisoindolin-5-yl)glycyl)piperidin-4-yl)methyl)piperazin-1-yl)pyridin-2-yl)piperidine-4-carboxamide]
inhibition at 0.01 µM: 78%
inhibition at 0.1 µM: 95%
inhibition at 1 µM: 95%
inhibition at 10 µM: 93%

N#Cc1ccc(N2CCC(C(=O)Nc3ccc(C#CC4CCN(CC5CCN(c6ccc7c(c6)C(=O)N(C6CCC(=O)NC6=O)C7=O)CC5)CC4)cn3)CC2)cc1C(F)(F)F (stereo not shown) [Example 131, 1-(4-cyano-3-(trifluoromethyl)phenyl)-N-(5-((1-((1-(2-(2,6-dioxopiperidin-3-yl)-1,3-dioxoisoindolin-5-yl)piperidin-4-yl)methyl)piperidin-4-yl)ethynyl)pyridin-2-yl)piperidine-4-carboxamide]
inhibition at 0.01 µM: 28%
inhibition at 0.1 µM: 66%
inhibition at 1 µM: 82%
inhibition at 10 µM: 87%

N#Cc1ccc(N2CCC(C(=O)Nc3ccc(C#CC4CCN(CC5CN(c6ccc7c(c6)C(=O)N(C6CCC(=O)NC6=O)C7=O)C5)CC4)cn3)CC2)cc1C(F)(F)F (stereo not shown) [Example 132, 1-(4-cyano-3-(trifluoromethyl)phenyl)-N-(5-((1-((1-(2-(2,6-dioxopiperidin-3-yl)-1,3-dioxoisoindolin-5-yl)azetidin-3-yl)methyl)piperidin-4-yl)ethynyl)pyridin-2-yl)piperidine-4-carboxamide]
inhibition at 0.01 µM: 31%
inhibition at 0.1 µM: 67%
inhibition at 1 µM: 72%
inhibition at 10 µM: 77%

N#Cc1ccc(N2CCC(C(=O)Nc3ccc(CCC4CCN(CC5CCN(c6ccc7c(c6)C(=O)N(C6CCC(=O)NC6=O)C7=O)CC5)CC4)cn3)CC2)cc1C(F)(F)F (stereo not shown) [Example 133, 1-(4-cyano-3-(trifluoromethyl)phenyl)-N-(5-(2-(1-((1-(2-(2,6-dioxopiperidin-3-yl)-1,3-dioxoisoindolin-5-yl)piperidin-4-yl)methyl)piperidin-4-yl)ethyl)pyridin-2-yl)piperidine-4-carboxamide]
inhibition at 0.01 µM: 60%
inhibition at 0.1 µM: 93%
inhibition at 1 µM: 98%

N#Cc1ccc(N2CCC(C(=O)Nc3ccc(C#CCN4CC5(CCN(c6ccc7c(c6)C(=O)N(C6CCC(=O)NC6=O)C7=O)CC5)C4)cn3)CC2)cc1C(F)(F)F (stereo not shown) [Example 134, 1-(4-cyano-3-(trifluoromethyl)phenyl)-N-(5-(3-(7-(2-(2,6-dioxopiperidin-3-yl)-1,3-dioxoisoindolin-5-yl)-2,7-diazaspiro[3.5]nonan-2-yl)prop-1-yn-1-yl)pyridin-2-yl)piperidine-4-carboxamide]
inhibition at 0.01 µM: 56%
inhibition at 0.1 µM: 87%
inhibition at 1 µM: 96%
inhibition at 10 µM: 92%

N#Cc1ccc(N2CCC(C(=O)Nc3ccc(N4CCC(CN5CC6(CCN(c7ccc8c(c7)CN(C7CCC(=O)NC7=O)C8=O)CC6)C5)CC4)cn3)CC2)cc1C(F)(F)F (stereo not shown) [Example 135, 1-(4-cyano-3-(trifluoromethyl)phenyl)-N-(5-(4-((7-(2-(2,6-dioxopiperidin-3-yl)-1-oxoisoindolin-5-yl)-2,7-diazaspiro[3.5]nonan-2-yl)methyl)piperidin-1-yl)pyridin-2-yl)piperidine-4-carboxamide]
inhibition at 0.01 µM: 35%
inhibition at 0.1 µM: 94%
inhibition at 1 µM: 85%

N#Cc1ccc(N2CCC(F)(C(=O)Nc3ccc(N4CCC(CN5CC6(CCN(c7ccc8c(c7)CN(C7CCC(=O)NC7=O)C8=O)CC6)C5)CC4)cn3)CC2)cc1C(F)(F)F (stereo not shown) [Example 136, 1-(4-cyano-3-(trifluoromethyl)phenyl)-N-(5-(4-((7-(2-(2,6-dioxopiperidin-3-yl)-1-oxoisoindolin-5-yl)-2,7-diazaspiro[3.5]nonan-2-yl)methyl)piperidin-1-yl)pyridin-2-yl)-4-fluoropiperidine-4-carboxamide]
inhibition at 0.01 µM: 38%
inhibition at 0.1 µM: 92%
inhibition at 1 µM: 91%

N#Cc1ncc(N2CCC(C(=O)Nc3ccc(N4CCC(CN5CC6(CCN(c7ccc8c(c7)CN(C7CCC(=O)NC7=O)C8=O)CC6)C5)CC4)cn3)CC2)cc1C(F)(F)F (stereo not shown) [Example 137, 1-(6-cyano-5-(trifluoromethyl)pyridin-3-yl)-N-(5-(4-((7-(2-(2,6-dioxopiperidin-3-yl)-1-oxoisoindolin-5-yl)-2,7-diazaspiro[3.5]nonan-2-yl)methyl)piperidin-1-yl)pyridin-2-yl)piperidine-4-carboxamide]
inhibition at 0.01 µM: 46%
inhibition at 0.1 µM: 86%
inhibition at 1 µM: 82%

N#Cc1ccc(N2CCC(C(=O)Nc3ccc(N4CCC(CCN5CC6(CCN(c7ccc8c(c7)CN(C7CCC(=O)NC7=O)C8=O)CC6)C5)CC4)cn3)CC2)cc1C(F)(F)F (stereo not shown) [Example 138, 1-(4-cyano-3-(trifluoromethyl)phenyl)-N-(5-(4-(2-(7-(2-(2,6-dioxopiperidin-3-yl)-1-oxoisoindolin-5-yl)-2,7-diazaspiro[3.5]nonan-2-yl)ethyl)piperidin-1-yl)pyridin-2-yl)piperidine-4-carboxamide]
inhibition at 0.01 µM: 52%
inhibition at 0.1 µM: 95%
inhibition at 1 µM: 90%

N#Cc1ccc(N2CCC(C(=O)Nc3ccc(N4CCC(CCN5CCN(c6ccc7c(c6)CN(C6CCC(=O)NC6=O)C7=O)CC5)CC4)cn3)CC2)cc1C(F)(F)F (stereo not shown) [Example 139, 1-(4-cyano-3-(trifluoromethyl)phenyl)-N-(5-(4-(2-(4-(2-(2,6-dioxopiperidin-3-yl)-1-oxoisoindolin-5-yl)piperazin-1-yl)ethyl)piperidin-1-yl)pyridin-2-yl)piperidine-4-carboxamide]
inhibition at 0.01 µM: 30%
inhibition at 0.1 µM: 92%
inhibition at 1 µM: 84%
